Data taken from US7452688B2, “Transformed cell with enhanced sensitivity to antifungal compound and use thereof” (Sumitomo Chemical Company, Limited, priority 2002, dated 2008).

Columns and labels:
Format in all cases: cell-based, Saccharomyces cerevisiae
[1] = system: transformed budding yeast TM182-HIK1; assay: Antifungal compound sensitivity test of transformed budding yeast TM182-HIK1 (Example 9); conditions: 30° C. 27 hours; for Degree of growth of budding yeast (%) TM182-HIK1 Gal-Ura-Leu medium: control medium
Description: Similarly, the transformed budding yeast TM182-HIK1 prepared in Example 8 was cultured at 30° C. for 24 hours in a Glu-Ura-Leu medium. The absorbance at 600 nm of a cell suspension of the grown transformed budding yeast was measured, and a cell suspension diluted with each medium to the absorbance of 0.1 was prepared. Further, a cell suspension in which the aforementioned cell suspension of the transformed budding yeast TM182-HIK1 was diluted 50-fold with a Glu-Ura-Leu medium and, as a control, a cell suspension in which the suspension was diluted 50-fold with a […] prepared. A suspension in which each of Compounds (1) to (3) was dissolved in dimethylsulfoxide (DMSO) to the concentration of 200 ppm, a solution in which each of Compounds (4) and (5) was dissolved in dimethylsulfoxide (DMSO) to the concentration of 600 ppm, and a solution in which each of Compounds (6) and (7) was dissolved in dimethylsulfoxide (DMSO) to the concentration of 20 ppm were prepared, and two microplates were prepared in which each 1.0 μL per well of the Compound DMSO solution and DMSO as a control were dispensed into two wells. In one microplate among them, each 100 μL of cell suspensions of the transformed budding yeast TM182-HIK1 which had been prepared by dilution with a Glu-Ura-Leu medium as described above was dispensed, and cultured by allowing to stand at 30° C. for 27 hours. In another microplate; as described above, as a control, each 100 μL of cell suspensions of the transformed budding yeast TM182-HIK1 which had been prepared by dilution with a Gal-Ura-Leu medium was dispensed, and cultured by allowing to stand at 30° C. for 27 hours. After culturing, the absorbance at 600 nm of each well was measured with a microplate reader.
Degree of growths of both of the transformed budding yeasts cultured in the presence of Compounds (1) to (7) and budding yeast as a control therefor are shown in Table 3. Degrees of growths of both of the transformed budding yeasts and budding yeast as a control thereof or are shown by a relative value in percentage, letting the absorbance of 600 nm at the concentration of the Compound of 0 ppm to be […]. It was confirmed that an inhibiting degree of growth of TM182-HIK1 by each test substance was greater than an inhibiting degree of growth of AH22-HIK1 by each test substance, and the TM182-HIK1 was a transformed cell with the enhanced sensitivity to an antifungal-compound as compared with AH22-HIK1.

[2] = system: transformed budding yeast TM182-BcOS1-I365S; assay: Antifungal compound sensitivity test of transformed budding yeast TM182-BcOS1-I365S (Example 6); conditions: final concentration 6 ppm, 30° C. 67 hours; for Degree of growth of budding yeast (%) TM182-BcOS1-I365S Gal-Ura-Leu medium: control medium
[3] = system: transformed budding yeast TM182-BcOS1-I365S; assay: as above; conditions: 30° C. 67 hours; for Degree of growth of budding yeast (%) TM182-BcOS1-I365S Gal-Ura-Leu medium: control medium
Description: The transformed budding yeast TM182-BcOS1-I365S prepared in Example 5 was cultured at 30° C. for 18 hours in a Glu-Ura-Leu medium. The absorbance at 600 nm of a cell suspension of the grown transformed budding yeast was measured, and a cell suspension diluted with sterilized distilled water to the absorbance of 0.1 was prepared. Further, a cell suspension in which the aforementioned cell suspension of the transformed budding yeast TM182-BcOS1-I365S was diluted 200-fold with a Glu-Ura-Leu medium and, as a control, a cell suspension in which the cell suspension was diluted 200-fold with a Gal-Ura-Leu medium were prepared. A solution in which each of Compound (1) to (3) was dissolved in dimethylsulfoxide (DMSO) to the concentration of 60 ppm, a solution in which each of Compounds (4) and (5) was dissolved in dimethylsulfoxide (DMSO) to the concentration of 2000 ppm, and a solution in which each of Compounds (6) and (7) was dissolved in dimethylsulfoxide (DMSO) to the concentration of 20 ppm were prepared, and two microplates were prepared in which each 2.0 μL per well of the Compound solution and DMSO as a control were dispensed into two wells. In one microplate among them, each 200 μL of cell suspensions of the transformed budding yeast TM182-BcOS1-I365S which had been prepared by dilution with a Glu-Ura-Leu medium as described above was dispensed, and cultured by allowing to stand at 30° C. for 67 hours. In another microplate, as a control, each 200 μL of cell suspensions of the transformed budding yeast TM182-BcOS1-I 365S which had been prepared by dilution with a Gal-Ura-Leu medium was dispensed, and cultured by allowing to stand at 30° C. for 67 hours. After culturing, the absorbance at 600 nm of each well was measured with a microplate reader.
Degrees of growths of both of the transformed budding yeasts cultured under the presence of Compounds (1) to (7) and budding yeast as a control therefor are shown in Table 2. Degrees of growths of both of the transformed budding yeasts and budding yeast as a control are expressed by a relative value in percentage, letting the absorbance at 600 nm at the concentration of the Compound of 0 ppm to be 100. It was confirmed that an inhibiting degree of growth of the transformed budding yeast TM182-BcOS1-I 365S by each test substance was grater than an inhibiting degree of growth of the transformed budding yeast AH22-BcOS1-I 365S by each test substance, and the transformed budding yeast TM182-BcOS1-I365S was a transformed cell with the enhanced sensitivity to an antifungal compound as compared with the transformed budding yeast AH22-BcOS1-I365S.

## CC12CC1(C)C(=O)N(c1cc(Cl)cc(Cl)c1)C2=O (stereo not shown) [Compound (1), Procymidone]
[1]; final concentration 2.0 ppm
  Degree of growth of budding yeast (%) TM182-HIK1 Gal-Ura-Leu medium: 100%
  Degree of growth of budding yeast (%) TM182-HIK1 Glu-Ura-Leu medium: 62%
[2]
  Degree of growth of budding yeast (%) TM182-BcOS1-I365S Gal-Ura-Leu medium: 99%
  Degree of growth of budding yeast (%) TM182-BcOS1-I365S Glu-Ura-Leu medium: 9%

## CC(C)NC(=O)N1CC(=O)N(c2cc(Cl)cc(Cl)c2)C1=O [Compound (2), Iprodione]
[1]; final concentration 2.0 ppm
  Degree of growth of budding yeast (%) TM182-HIK1 Gal-Ura-Leu medium: 94%
  Degree of growth of budding yeast (%) TM182-HIK1 Glu-Ura-Leu medium: 79%
[2]
  Degree of growth of budding yeast (%) TM182-BcOS1-I365S Gal-Ura-Leu medium: 88%
  Degree of growth of budding yeast (%) TM182-BcOS1-I365S Glu-Ura-Leu medium: 11%

## C=CC1(C)OC(=O)N(c2cc(Cl)cc(Cl)c2)C1=O (stereo not shown) [Compound (3), Vinclozolin]
[1]; final concentration 2.0 ppm
  Degree of growth of budding yeast (%) TM182-HIK1 Gal-Ura-Leu medium: 100%
  Degree of growth of budding yeast (%) TM182-HIK1 Glu-Ura-Leu medium: 30%
[2]
  Degree of growth of budding yeast (%) TM182-BcOS1-I365S Gal-Ura-Leu medium: 92%
  Degree of growth of budding yeast (%) TM182-BcOS1-I365S Glu-Ura-Leu medium: 9%

## O=[N+]([O-])c1c(Cl)c(Cl)c(Cl)c(Cl)c1Cl [Compound (4), Quintozene]
[3]; final concentration 20 ppm
  Degree of growth of budding yeast (%) TM182-BcOS1-I365S Gal-Ura-Leu medium: 101%
  Degree of growth of budding yeast (%) TM182-BcOS1-I365S Glu-Ura-Leu medium: 41%
[1]; final concentration 6.0 ppm
  Degree of growth of budding yeast (%) TM182-HIK1 Gal-Ura-Leu medium: 97%
  Degree of growth of budding yeast (%) TM182-HIK1 Glu-Ura-Leu medium: 63%

## COP(=S)(OC)Oc1c(Cl)cc(C)cc1Cl [Compound (5), Tolclofos-methyl]
[3]; final concentration 20 ppm
  Degree of growth of budding yeast (%) TM182-BcOS1-I365S Gal-Ura-Leu medium: 76%
  Degree of growth of budding yeast (%) TM182-BcOS1-I365S Glu-Ura-Leu medium: 13%
[1]; final concentration 6.0 ppm
  Degree of growth of budding yeast (%) TM182-HIK1 Gal-Ura-Leu medium: 106%
  Degree of growth of budding yeast (%) TM182-HIK1 Glu-Ura-Leu medium: 22%

## N#Cc1c[nH]cc1-c1cccc2c1OC(F)(F)O2 [Compound (6), Fludioxonil]
[3]; final concentration 0.2 ppm
  Degree of growth of budding yeast (%) TM182-BcOS1-I365S Gal-Ura-Leu medium: 93%
  Degree of growth of budding yeast (%) TM182-BcOS1-I365S Glu-Ura-Leu medium: 7%
[1]; final concentration 0.2 ppm
  Degree of growth of budding yeast (%) TM182-HIK1 Gal-Ura-Leu medium: 104%
  Degree of growth of budding yeast (%) TM182-HIK1 Glu-Ura-Leu medium: 11%

## N#Cc1c[nH]cc1-c1cccc(Cl)c1Cl [Compound (7), Fenpiclonil]
[3]; final concentration 0.2 ppm
  Degree of growth of budding yeast (%) TM182-BcOS1-I365S Gal-Ura-Leu medium: 90%
  Degree of growth of budding yeast (%) TM182-BcOS1-I365S Glu-Ura-Leu medium: 22%
[1]; final concentration 0.2 ppm
  Degree of growth of budding yeast (%) TM182-HIK1 Gal-Ura-Leu medium: 87%
  Degree of growth of budding yeast (%) TM182-HIK1 Glu-Ura-Leu medium: 9%
